According to US8524705B2, “2-oxo-2-(2-phenyl-5,6,7,8-tetrahydro-indolizin-3-yl)-acetamide derivatives and related compounds as antifungal agents” (F2G Limited British Body Corporate, priority 2007, dated 2013):
Values after ≈ are worked out from the molar mass of the structure shown.

Legend:
Type in all cases: cell-based
Conditions in all cases: banded into grades
Aspergillus niger = assay: Measurement of Minimum Inhibitory Concentrations (MICs), A. niger
Procedure: (§1) Between 1 and 5 mgs of compound were accurately weighed out into a sterile Eppendorf tube. The compound was dissolved in DMSO to give a solution containing 5 mg/mL. Tubes were stored at −20° C. until required. On the day of testing thawed solutions were vortex mixed to ensure homogeneity. 30 μL of solution was removed and added to 570 μL of sterile water in a separate sterile Eppendorf. The thoroughly mixed solution was used to prepare a series of doubling dilutions in water, in a deep well plate. […] replicate plates were prepared using a Minitrak by aspirating […] from each well into eleven clear polystyrene 96 well plates. Spores of Aspergillus spp. (Aspergillus fumigatus [two strains], Aspergillus terreus [two strains], Aspergillus niger and Aspergillus flavus) were harvested from cultures grown on Sabarauds agar for 5 days, and resuspended in PBS/Tween 80 to approx 1×10^7 cfu/mL. Each organism suspension was diluted in YAG medium (1% glucose, 1% ammonium chloride and 0.5% yeast extract) to 0.5-2×10^4 cfu/mL. 80 μL of an organism suspension was added to each well of the plate containing drug dilutions. This produced MIC plates with a drug range 50-0.05 mg/L and organism inocula of 1−2×10^4 cfu/mL for Aspergillus spp. All plates were incubated for 24 hrs at 35° C. Growth was assessed by monitoring the optical density at 485 nm for each well. The MIC of a compound is the lowest drug concentration that inhibits growth of an organism by >70% compared with a drug free control. MICs are recorded as mg/L. In cases where the MIC of an organism is >=0.05 mg/L the MIC is repeated using a concentration range of 0.5-0.0005 mg/L. Other growth media can be used for susceptibility testing, and the activity of the described compounds was also assessed in RPMI medium containing 2% glucose, and 0.135M MOPS buffer. MIC tests in YAG medium have more clear-cut endpoints and have slightly lower MICs than those performed in RPMI medium. The following organisms were tested: Aspergillus flavus, Aspergillus fumigatus AF293 and AF210, Aspergillus niger and Aspergillus terreus AT4 and AT49.

[1] = system: Aspergillus fumigatus AF293; assay: Measurement of Minimum Inhibitory Concentrations (MICs), A. fumigatus
Procedure: as §1

[2] = system: Aspergillus fumigatus AF210; assay: Measurement of Minimum Inhibitory Concentrations (MICs), A. fumigatus 210
Procedure: as §1

Aspergillus flavus = assay: Measurement of Minimum Inhibitory Concentrations (MICs), A. flavus
Procedure: as §1

Aspergillus terreus AT4 = assay: Measurement of Minimum Inhibitory Concentrations (MICs), A. terreus
Procedure: as §1

Aspergillus terreus AT49 = assay: Measurement of Minimum Inhibitory Concentrations (MICs), A. terreus 49
Procedure: as §1

[3] = RPMI medium containing 2% glucose, 0.135M MOPS buffer
[4] = YAG medium, 24 hrs at 35° C., >70% growth inhibition

SMILES | MIC (Aspergillus niger; [3]) | MIC (Aspergillus niger; [4]) | MIC [1, 3] | MIC [1, 4] | MIC [2, 3] | MIC [2, 4] | MIC (Aspergillus flavus; [3]) | MIC (Aspergillus flavus; [4]) | MIC (Aspergillus terreus AT4; [3]) | MIC (Aspergillus terreus AT4; [4]) | MIC (Aspergillus terreus AT49; [3]) | MIC (Aspergillus terreus AT49; [4])
C=C(C)CN1CCN(c2ccc(NC(=O)C(=O)c3c(-c4ccccc4)cc4n3CCCC4)cc2)CC1 [Example 1, N-{4-[4(2-methyl-allyl)-piperazin-1-yl]-phenyl}-2-oxo-2-(2-phenyl-5,6,7,8-tetrahydro-indolizin-3-yl)-acetamide] | < 1 µg/mL | < 1 µg/mL | < 1 µg/mL | < 1 µg/mL | < 1 µg/mL | < 1 µg/mL | < 1 µg/mL | < 1 µg/mL | < 1 µg/mL | < 1 µg/mL | < 1 µg/mL | < 1 µg/mL
CC(C)(C)CN1CCN(c2ccc(NC(=O)C(=O)c3c(-c4ccccc4)cc4n3CCCC4)cc2)CC1 [Example 2, N-{4-[4-(2,2-dimethyl-propyl)-piperazin-1-yl]-phenyl}-2-oxo-2-(2-phenyl-5,6,7,8-tetrahydro-indolizin-3-yl)-acetamide] | < 1 µg/mL | < 1 µg/mL | < 1 µg/mL | < 1 µg/mL | < 1 µg/mL | < 1 µg/mL | < 1 µg/mL | < 1 µg/mL | < 1 µg/mL | < 1 µg/mL | < 1 µg/mL | < 1 µg/mL
Cc1cc(C)nc(N2CCN(c3ccc(NC(=O)C(=O)c4c(-c5ccccc5)cc5n4CCCC5)cc3)CC2)c1 [Example 3, N-{4-[4-(4,6-dimethyl-pyridin-2-yl)-piperazin-1-yl]-phenyl}-2-oxo-2-(2-phenyl-5,6,7,8-tetrahydro-indolizin-3-yl)-acetamide] | < 1 µg/mL | < 1 µg/mL | < 1 µg/mL | < 1 µg/mL | < 1 µg/mL | < 1 µg/mL | < 1 µg/mL | < 1 µg/mL | < 1 µg/mL | < 1 µg/mL | < 1 µg/mL | < 1 µg/mL
Cc1cc(C)nc(N2CCN(c3ccc(NC(=O)C(=O)c4c(C5CCCC5)cc5n4CCCC5)cc3)CC2)c1 [Example 4, 2-(2-cyclopentyl-5,6,7,8-tetrahydro-indolizin-3-yl)-N-{4-[4-(4,6-dimethyl-pyridin-2-yl)-piperazin-1-yl]-phenyl}-2-oxo-acetamide] | < 1 µg/mL | < 1 µg/mL | < 1 µg/mL | < 1 µg/mL | < 1 µg/mL | < 1 µg/mL | < 1 µg/mL | < 1 µg/mL | < 1 µg/mL | < 1 µg/mL | < 1 µg/mL | < 1 µg/mL
Cc1cc(C)nc(N2CCCN(c3ccc(NC(=O)C(=O)c4c(-c5ccccc5)cc5n4CCCC5)cc3)CC2)c1 [Example 5, N-{4-[4-(4,6-dimethyl-pyridin-2-yl)-[1,4]diazepan-1-yl]-phenyl}-2-oxo-2-(2-phenyl-5,6,7,8-tetrahydro-indolizin-3-yl)-acetamide] | < 1 µg/mL | < 1 µg/mL | < 1 µg/mL | < 1 µg/mL | < 1 µg/mL | < 1 µg/mL | < 1 µg/mL | < 1 µg/mL | < 1 µg/mL | < 1 µg/mL | < 1 µg/mL | < 1 µg/mL
Cc1cc(C)nc(N2CCN(c3ccc(N(C)C(=O)C(=O)c4c(-c5ccccc5)cc5n4CCCC5)cc3)CC2)c1 [Example 6, N-{4-[4-(4,6-dimethyl-pyridin-2-yl)-piperazin-1-yl]-phenyl}-N-methyl-2-oxo-2-(2-phenyl-5,6,7,8-tetrahydro-indolizin-3-yl)-acetamide] | > 10 µg/mL | > 10 µg/mL | > 10 µg/mL | 1 to 10 µg/mL (≈ 1.83 to 18.3 µM) | > 10 µg/mL | 1 to 10 µg/mL (≈ 1.83 to 18.3 µM) | > 10 µg/mL | > 10 µg/mL | > 10 µg/mL | > 10 µg/mL | > 10 µg/mL | 1 to 10 µg/mL (≈ 1.83 to 18.3 µM)
